{
  "source": "patent US20230256092A1",
  "about": "“COMBINED USE OF ANTI-CCR8 ANTIBODY AND CHEMOTHERAPEUTIC AGENT” (Shionogi & Co., Ltd., priority 2020, published 2023)",
  "type_in_all_cases": "in vivo, mouse",
  "key": {"[1]": {"system": "colon cancer-derived Colon26 cells", "assay": "Example 5: Balb/c mice inoculated with Colon26 cells, oxaliplatin or 5-FU combination", "settings": "antibody 50 μg iv day 5; oxaliplatin 5 mg/kg or 5-FU 30 mg/kg iv 1 hour later; oxaliplatin and antibody single 4, 7, 10, 12, 14, 17 days; 5-FU single only 7 days; combinations from 10 days; Mann-Whitney U", "procedure": "The back of each Balb/c mouse (5 weeks old, female) was intracutaneously inoculated with 3.5×10^5 colon cancer-derived Colon26 cells (50 μL).\nTo an anti-mouse CCR8 antibody single administration group, 50 μg (200 μL) of an anti-mouse CCR8 antibody (clone SA214G2, BioLegend, Inc.) was intravenously administered 5 days after tumor inoculation, and saline was intravenously administered at a volume of 10 ml/kg body weight 1 hour after the administration of the anti-mouse CCR8 antibody (N=10).\nTo an oxaliplatin single administration group, 50 μg (200 μL) of an isotype control antibody was intravenously administered 5 days after tumor inoculation, and oxaliplatin (trade name: ELPLAT, Yakult Honsha Company, Limited) at 5 mg/kg body weight was intravenously administered at a volume of 10 mL/kg body weight 1 hour after the administration of the isotype control antibody (N=10). […]\nTumor volumes were measured every 2 to 3 days from 4 days after tumor inoculation (a day before antibody administration). The tumor volume (mm^3) was measured in long diameter (mm)×short diameter (mm)×short diameter (mm)/2, and a significant difference test based on a Mann-Whitney U method (significance level: P<0.05) was conducted."}, "[2]": {"system": "colon cancer-derived CT26 cells", "assay": "Example 12: hCCR8-KI (KI/KI) mice inoculated with CT26 cells, 5-FU combination", "settings": "antibody 0.1 mg/kg iv day 5; 5-FU 30 mg/kg iv 3 hours later; single groups 8, 12, 15 days, combined from 8 days; Mann-Whitney U", "procedure": "The back of each hCCR8-KI (KI/KI) mouse (14 weeks old, female) prepared in Test Example 10 was intracutaneously inoculated with 3.5×10^5 colon cancer-derived CT26 cells (50 μL).\nTo an anti-human CCR8 antibody single administration group, an anti-human CCR8 antibody (humanized 10A11 antibody (light chain variable region: IGKV4-1 N53Q+G29R (SEQ ID NO: 59)/heavy chain variable region: IGHV3-15 T94R (SEQ ID NO: 41)) was intravenously administered at 0.1 mg/kg body weight 5 days after tumor inoculation, and saline was intravenously administered 3 hours after the administration of the anti-human CCR8 antibody (N=8). To a 5-FU single administration group, a saline was intravenously administered 5 days after tumor inoculation, and 5-FU (trade name: 5-FU INJECTION 250 KYOWA, Kyowa Hakko Kirin Co. Ltd) was intravenously administered at 30 mg/kg body weight 3 hours after the administration of the saline (N=8). […] Tumor volumes were measured every 3 to 4 days from […] after tumor inoculation (a day before antibody administration). The tumor volume (mm^3) was measured in long diameter (mm)×short diameter (mm)×short diameter (mm)/2, and a significant difference test based on a Mann-Whitney U method (significance level: P<0.05) was conducted."}, "[3]": {"system": "colon cancer-derived Colon26 cells", "assay": "Example 6: hCCR8-KI (KI/KI) mice inoculated with Colon26 cells, oxaliplatin combination", "settings": "antibody 15 mg/kg iv day 5; oxaliplatin 5 mg/kg iv 3 hours later; single groups 4, 7, 10, 12, 14, 17, 18 days, combined from 7 days; Mann-Whitney U", "procedure": "The back of each hCCR8-KI (KI/KI) mouse (12 weeks old, female) prepared in Test Example 10 was intracutaneously inoculated with 3.5×10^5 colon cancer-derived Colon26 cells (50 uL).\nTo an anti-human CCR8 antibody single administration group, an anti-human CCR8 antibody (humanized 10A11 antibody (light chain variable region: IGKV4-1 N53Q+G29R (SEQ ID NO: 59)/heavy chain variable region: IGHV3-15 T94R (SEQ ID NO: 41))) at 15 mg/kg body weight was intravenously administered 5 days after tumor inoculation, and saline was intravenously administered 3 hours after the administration of the anti-human CCR8 antibody (N=10). To an oxaliplatin single administration group, saline was intravenously administered 5 days after tumor inoculation, and oxaliplatin (trade name: ELPLAT, Yakult Honsha Company, Limited) at 5 mg/kg body weight was intravenously administered 3 hours after the administration of the saline (N=10). […] Tumor volumes were measured every 1 to 3 days from 4 days after tumor inoculation (a day before antibody administration). The tumor volume (mm^3) was measured in long diameter (mm)×short diameter (mm)×short diameter (mm)/2, and a significant difference test based on a Mann-Whitney U method (significance level: P<0.05) was conducted."}, "[4]": {"system": "colon cancer-derived Colon26 cells", "assay": "Example 11: hCCR8-KI (KI/KI) mice inoculated with Colon26 cells, oxaliplatin combination (Part 2)", "settings": "as Example 6; 2-7B part: oxaliplatin 10, 14, 17 days, antibody 14, 17 days; 19D7 part: oxaliplatin 10, 14 days, antibody 14 days; combinations from 10 days; Student's T one-sided", "method": "To an oxaliplatin single administration group, saline was intravenously administered 5 days after tumor inoculation, and oxaliplatin (trade name: ELPLAT, Yakult Honsha Company, Limited) at 5 mg/kg body weight was intravenously administered 3 hours after the administration of the saline (N=10). To an anti-mouse CCR8 antibody and oxaliplatin combined administration group, an anti-human CCR8 antibody at 15 mg/kg body weight was intravenously administered 5 days after tumor inoculation, and oxaliplatin at 5 mg/kg body weight was intravenously administered 3 hours after the administration of the anti-mouse CCR8 antibody (N=10). To a control group, saline was intravenously administered 5 days after tumor inoculation, and saline was intravenously administered 3 hours after the administration of the saline (N=10). […] Tumor volumes were measured every 1 to 3 days from 4 days after tumor inoculation (a day before antibody administration). The tumor volume (mm^3) was measured in long diameter (mm)×short diameter (mm)×short diameter (mm)/2, and a significant difference test based on a Mann-Whitney U method (significance level: P<0.05) was conducted. […]"}},
  "data": [
    {"smiles": "O=c1[nH]cc(F)c(=O)[nH]1", "note": "[5-FU, fluorouracil, reference compound]", "values": [
      {"measurement": "tumor volume as compared to the control group", "setting": "[1]", "value": "significant decrease"},
      {"measurement": "tumor volume as compared to the control group", "setting": "[2]", "value": "no significant decrease"}
    ]},
    {"smiles": "O=C1[O][Pt]2([NH][C@@H]3CCCC[C@H]3[NH]2)[O]C1=O", "note": "[oxaliplatin, reference compound]", "values": [
      {"measurement": "tumor volume as compared to the control group", "setting": "[1]", "value": "no significant decrease"},
      {"measurement": "tumor volume as compared to the control group", "setting": "[3]", "value": "no significant decrease"},
      {"measurement": "tumor volume as compared to the control group", "setting": "[4]", "value": "no significant decrease"}
    ]}
  ]
}
